Results published in US8791084B2, “Inhibition of SOX9 function in the treatment of proteoglycan-associated pathophysiological conditions” (Robarts Research Institute, priority 2006, dated 2014).

Assays:
SOX9 [1] = assay: SOX9 knock-down by anti-SOX9 siRNA transfection of primary astrocytes, mRNA levels by Q-PCR; assay type: cell-based, rat
Method: (§1) Primary astrocyte cultures were prepared from newborn rats at postnatal day 1 (P1) (Wilson and Dixon 1989). The upper portion of the skull was removed and the meninges carefully dissected away to avoid contamination of the culture with fibroblasts. The neocortices were removed, placed into serum-free advanced D-MEM (Dulbecco's Modified Eagle Medium, Invitrogen), homogenized by pipeting and gravity-filtered through 70 μm cell strainer (Falcon). The cells were plated onto 6-well dishes (Falcon). […] Cytokine treatments of primary astrocytes with PDGF, IL-6, TNFα and TGFβ2 (R and D systems) and bFGF2 (Invitrogen) were carried out for 12 hours. RNA was extracted using the Qiagen (Germany) RNA-easy kit following manufacturer's specifications. The transfections of primary astrocytes with SiRNAs and the CMV-SOX9 expression construct were conducted using Lipofectamine 2000 (Invitrogen) according to manufacturer's specifications in 6-well dishes (Falcon). The siRNA ([…]) (SEQ ID No. 4) was used at a concentration of 150 pM. The universal negative control scrambled SiRNA was used according to manufacturer's (Invitrogen) specifications. Transfection efficiencies with a fluorescently-tagged control SiRNA was 35%-40%. The CMV-SOX9 construct has previously been described (Foster et al. 1994; Lefebvre et al. 1997) and plasmid transfection efficiency estimated by cotransfection with a CMV-GFP construct was approximately 10%.
(§2) First strand cDNA was synthesized from 1 μg RNA per condition (cell culture or animal tissue) using the High Capacity cDNA Archive Kit according to the manufacturer protocol (Applied Biosystems Foster City Calif.). The primer probe sets, optical adhesive covers, and PCR plates were purchased from Applied Biosystems (Foster City, Calif.). The probes were labeled with 5′ FAM and with 3′TAMRA as quencher with the exception of the ribosomal probe, which was labeled with 5′ VIC. For Taq Man assays the thermal cycler conditions were 10 minutes at 95° C. followed by 40 cycles of 30 seconds at 95° C. followed by 30 seconds at 60° C. A standard curve of cycle thresholds using cDNA serial dilutions was established and used to calculate abundance of each target mRNA. Technical triplicates and at least biological triplicates were run on all conditions tested. Values were normalized to the amounts of 18S mRNA as determined by Q-PCR. The data were analyzed by a two way ANOVA following by a Bonferroni test with Dunn's correction for multiple comparisons or Dunnet's procedure when comparisons were made with a single variable (control). Student's t-test was used when only two groups were compared.
To test the effect of SOX9 knock-down on the expression of XT-I, XT-II and C4ST, a control (scrambled) small interfering RNA (SiRNA) or an anti-SOX9 SiRNA was transfected into primary astrocytes and mRNA levels of SOX9, XT-I, XT-II and C4ST were assayed by Q-PCR 12 hours later. […] (FIG. 7 E, F).

[2] = system: rat primary astrocyte cultures; assay: Cytokine treatment of primary astrocyte cultures, mRNA levels by Q-PCR; assay type: cell-based; conditions: for XT-II mRNA: 6 week-old primary astrocyte cultures, 1, 10 or 100 ng/ml cytokine, 12 hour exposure, relative to untreated cultures; for SOX9 mRNA levels: primary astrocyte cultures after cytokine treatments; for Fibronectin expression / Laminin expression: primary astrocyte cultures following cytokine treatments
Method: as §1, §2
To evaluate TGFβ2, PDGF and IL-6 as candidate XT-I, XT-II and C4ST transcriptional regulators, rat primary astrocyte cultures were exposed to 1, 10 or 100 ng/ml of each cytokine. After a 12 hour cytokine exposure, XT-I, XT-II and C4ST mRNA levels were measured relative to untreated cultures by Q-PCR. Six week-old cultures were used as, by this time point, the astrocytes are quiescent (as evidenced by reduced GFAP expression) and baseline levels of XT-I, XT-II and C4ST genes are low.
To test whether SOX9 regulates expression of XT-I, XT-II and C4ST in vitro, primary astrocytes were transfected with a SOX9 expression construct and assessed for CBG mRNA levels by Q-PCR 48 hours later. […] The levels of fibronectin and laminin mRNA in these same cultures were unaffected by SOX9 over-expression. To determine whether IL-6, PDGF and TGF[…]2 might increase XT-I, XT-II and C4ST gene expression by up-regulating SOX9 expression, the expression levels of SOX9 mRNA were assayed after these cytokine treatments in primary astrocyte cultures.

[3] = system: rat primary astrocyte cultures; assay: Slot blot analysis of CSPG protein (CS56) in cytokine-treated primary astrocytes; assay type: cell-based
Method: as §1
Tissue and cell samples were lysed in RIPA buffer [20 mM, Tris-HCl (pH 7.6), 150 mM NaCl, 0.5% sodium deoxycholate, 1% Triton X-100, 0.1% SDS]. […] Immunoreactive bands were scanned by an imaging densitometer (BioRad GF-700 Imaging Densitometer, Mississauga, ON); and results were quantified using Multi-Analist software (BioRad, Mississauga, ON). […]
To evaluate TGFβ2, PDGF and IL-6 as candidate XT-I, XT-II and C4ST transcriptional regulators, rat primary astrocyte cultures were exposed to 1, 10 or 100 ng/ml of each cytokine. After a 12 hour cytokine exposure, XT-I, XT-II and C4ST mRNA levels were measured relative to untreated cultures by Q-PCR. […]

SOX9 [4] = assay: SOX9 luciferase reporter construct assay in primary astrocytes; assay type: cell-based, rat
From the text: Astrocytes, such as wither primary astrocytes (rodent or human) or an established astrocyte cell line designated as Neu7 (Fok-Seang, Smith-Thomas et al. 1995), were transfected with a SOX9 reporter construct under standard conditions. The SOX9 reporter construct (a gift from Dr. Michael Underhill, University of British Columbia) has 4 repeats of the SOX9 binding site coupled to the mouse Col2a1 minimal promoter (−89 to +6) cloned upstream of a luciferase gene in the plasmid pGL4 (Promega) (Weston, Chandraratna et al. 2002). Changes in luciferase levels in transfected cultures is used as a read-out of SOX9 activity. The anti-SOX9 SiRNA previously used (or astrocytes from the SOX9 conditional knock out) is used as a positive control and the scrambled siRNA is used as a negative control for this screen. The screen is used to identify compounds that reduce the levels of luciferase activity relative to control wells. […]
Specifically, primary astrocytes obtained from newborn rats were cultured in 6-well dishes for 6 weeks in Advanced-DMEM with 10% FBS. […] Transfection efficiency was calculated by co-transfection with a control plasmid. […] Twenty-four hours after the TGF-β2 application the cells were lysed and luciferase activity was measured using the Luciferase Assay System (PROMEGA) (according to the manufacturer's protocol) and a luminometer.

[5] = SOX9 knock-down in primary astrocytes
[6] = TGFβ2-treated primary astrocytes
[7] = primary astrocytes, 12 hours after transfection, siRNA 150 pM
[8] = TGFβ2 treatment alone, primary astrocytes

| Substance | XT-II mRNA [2] | SOX9 mRNA levels [2] | Fibronectin expression [2] | Laminin expression [2] | CSPG protein expression [3] | other results |
| --- | --- | --- | --- | --- | --- | --- |
| AAAGUUGUCGCUCCCACUGAAGUUU (listed as RNA, chemistry not given here) [anti-SOX9 siRNA, small interfering RNA against SOX9, used at 150 pM in primary astrocytes] | – | – | – | – | – | fibronectin gene expression (SOX9 [1]; [5]): did not decrease; laminin gene expression (SOX9 [1]; [5]): did not decrease; reduction in SOX9 mRNA levels (SOX9 [1]; [6]): 87±13%; reduction in XT-I mRNA (SOX9 [1]; [6]): 68±6.4%; reduction in SOX9 mRNA levels (SOX9 [1]; [7]): 75±12%; reduction in XT-I mRNA (SOX9 [1]; [7]): 71±5.5% |
| IL-6: cytokine (R and D systems) used to treat primary astrocytes | strong, concentration-dependent up-regulation | significant increase | similarly increased | similarly increased | increased expression | – |
| PDGF | strong, concentration-dependent up-regulation | significant increase | similarly increased | similarly increased | increased expression | – |
| TGFβ2: cytokine (R and D systems) used to treat primary astrocytes | strong, concentration-dependent up-regulation | significant increase | similarly increased | similarly increased | increased expression | SOX9 mRNA levels (SOX9 [1]; [8]): increased; XT-1 mRNA levels (SOX9 [1]; [8]): increased; luciferase activity (SOX9 [4]; SOX9 luciferase reporter construct following treatment (FIG. 10)): increased; increase in luciferase activity (SOX9 [4]; TGF-β2 final concentration 10 nM, 24 hours, primary astrocytes from newborn rats cultured 6 weeks): ~2 fold |
| bFGF: cytokine (Invitrogen) used to treat primary astrocytes | no effect | – | – | – | – | – |
